Measurements taken from patent publication US9585933B2, “Therapeutic use of peptide inhibitors of NADPH oxidase; aerosolization as a delivery mechanism” (University of Pittsburgh—Of the Commonwealth System of …, priority 2011, dated 2017).
Where no end group is shown, it is not given here.

System: hypoxia-induced pulmonary hypertension in mice
Experiment: Aerosolized peptide in hypoxia-induced pulmonary hypertension, right ventricular hypertrophy
Format: in vivo, mice (C57BL/6)
Description: Nebulization was performed using a peptide solution of 5.6 mg of the Nox2ds-tat polypeptide—RKKRRQRRRCSTRIRRQL (SEQ ID NO: 7)—was dissolved in 5 mL of PBS. The polypeptide-containing solution was placed in a nebulization chamber which consisted of a Plexiglas living environment measuring 24×10×9 in. A diffuser was placed in front of the inlet to allow equal distribution of nebulized droplets, and a controlled fan pulled air through the environment
The polypeptide was delivered to mice (C57BL/6, n=2) at an air flow rate of 8 L/minute for 20 minutes per treatment. Treatment was repeated every other day for 21 days.
FIG. 7 (top panel) is a graph showing right ventricular pressure and FIG. 7 (bottom panel) is a graph showing the Fulton's Index for the mice tested. To obtain a Fulton's Index, the heart and lungs are excised and weighed, and the ratio of RV free wall weight over septum plus left ventricular (LV) free wall weight is estimated and used as the index of RV hypertrophy.
Invasive hemodynamics to examine RV function were carried out using pressure-volume loop analysis (Scisence P/V loop hardware, London, Ontario with IOX2 analysis software, EMKA, Falls Church, Va.). Contractility index (dP/dtmax/IP), Powermax/EDV, and ejection fraction as indicators of RV systolic function as well as the time constant of relaxation (Tau) and dP/dtmin as measures of RV relaxation were determined.

## CSTRVRRQL-NH2 [Nox2ds, CSTRVRRQL]
hypoxia-induced pulmonary hypertension in mice
  right ventricular hypertrophy and RV pressure (in words): attenuated
Hypoxic mice, n=2, normoxic 0.21±0.01, hypoxic 0.27±0.02, preliminary data
  right ventricule/left ventricule+septum ratio (Fulton's Index): 0.22±0.004
